Data from patent US12187709B2 (Genentech, Inc., priority 2021, dated 2025).

Key:
Cbl-b = Cbl-b (Homo sapiens (Human), UniProt Q13191); experiment: Cbl-b LCK Ub TR-FRET assay (Cbl-b Lck HTRF); type: biochemical; details: for IC50: Cbl-b LCK Ub TR-FRET; for (fold-selectivity) Cbl-b and C-Cbl Selectivity / fold-selectivity (Cbl-b over C-cbl): ratio C-cbl Lck HTRF IC50 / Cbl-b Lck HTRF IC50
Outline: (§1)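 Signal is read once the detection mix has stood 20 min at ambient temperature. Curves are anchored by DMSO as maximum and by omission of LCK as minimum.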

c-Cbl = c-Cbl (Homo sapiens (Human), UniProt P22681); experiment: C-Cbl LCK Ub TR-FRET assay (C-cbl Lck HTRF); type: biochemical
c-Cbl, sequence (P22681 47-435): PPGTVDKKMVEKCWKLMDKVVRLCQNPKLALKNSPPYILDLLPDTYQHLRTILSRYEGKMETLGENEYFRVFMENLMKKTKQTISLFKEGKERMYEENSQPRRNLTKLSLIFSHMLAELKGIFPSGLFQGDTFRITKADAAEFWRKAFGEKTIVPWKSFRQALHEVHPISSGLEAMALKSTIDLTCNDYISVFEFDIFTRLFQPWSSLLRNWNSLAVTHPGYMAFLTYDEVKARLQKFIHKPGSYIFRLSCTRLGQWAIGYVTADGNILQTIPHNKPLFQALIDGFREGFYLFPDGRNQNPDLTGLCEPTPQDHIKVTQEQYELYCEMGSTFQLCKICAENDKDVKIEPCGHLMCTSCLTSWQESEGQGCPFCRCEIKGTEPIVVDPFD
Outline: as §1

c-Cbl (residues 47-435) = c-Cbl (residues 47-435) (Homo sapiens (Human), UniProt P22681); experiment: c-Cbl SPR assay; type: binding; details: 20° C.
c-Cbl (residues 47-435), sequence (P22681 47-435): as above
Outline: (§2)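 Protein captured at 1300-1500 RU; compounds run as 6-point 2-fold series in multi-cycle kinetics (60 s contact, 40 μl/min, 120-1200 s dissociation), fitted 1:1. For slow binders, kd came from chaser-compound occupancy over time, fixed in a single-cycle fit (5 concentrations, top 500 nM).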

[1] = biological target: Human Cbl-b (residues 40-426) (Homo sapiens (Human), UniProt Q13191); experiment: Cbl-b SPR assay; type: binding; details: for Fold of selectivity: C-cbl SPR Kd vs Cbl-b SPR Kd; for Kd: SPR, 20° C.
Human Cbl-b (residues 40-426), sequence (Q13191 40-426): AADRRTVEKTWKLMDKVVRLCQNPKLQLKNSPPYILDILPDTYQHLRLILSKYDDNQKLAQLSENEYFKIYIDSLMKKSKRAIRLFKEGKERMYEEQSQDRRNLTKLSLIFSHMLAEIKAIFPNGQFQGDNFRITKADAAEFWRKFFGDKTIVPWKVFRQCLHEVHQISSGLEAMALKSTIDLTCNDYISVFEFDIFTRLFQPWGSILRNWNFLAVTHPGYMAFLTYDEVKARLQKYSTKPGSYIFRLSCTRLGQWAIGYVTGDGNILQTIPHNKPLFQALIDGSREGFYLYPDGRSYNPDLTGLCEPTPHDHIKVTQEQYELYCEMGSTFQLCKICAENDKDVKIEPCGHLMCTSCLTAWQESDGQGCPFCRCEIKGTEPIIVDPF
Outline: as §2

Cbl-b, sequence (Q13191 40-426): as above

IC50 (Cbl-b; Example 121) [nM] | (fold-selectivity) Cbl-b and C-Cbl Selectivity (Cbl-b) [x] | IC50 (c-Cbl) [nM] | Kd (c-Cbl (residues 47-435)) [nM] | Fold of selectivity [1] [×] | Kd [1] [nM] | IC50 (Cbl-b) [nM] | fold-selectivity (Cbl-b over C-cbl) (Cbl-b) | SMILES
540 | 1.4 | 780 | 770 | 1.8 | 440 | – | – | Cn1cnnc1[C@@H](c1cc(Cl)cc(N2Cc3c(cc(CNC4(C)CCC4)cc3C(F)(F)F)C2=O)c1)C1COC1 (single isomer, unassigned) [Compound 408]
52 | 1.1 | 57 | 90 | 1.4 | 62 | – | – | Cn1cnnc1[C@H](c1cc(Cl)cc(N2Cc3c(cc(CNC4(C)CCC4)cc3C(F)(F)F)C2=O)c1)C1COC1 (single isomer, unassigned) [Compound 409]
14 | 4.2 | 59 | 82 | 16 | 5.2 | – | – | C[C@@H](NC1(C)CCC1)c1cc2c(c(C(F)F)c1)CN(c1cccc([C@H](c3nncn3C)C3COC3)c1)C2=O (single isomer, unassigned) [Compound 412]
4.5 | 1.6 | 7.1 | 1.6 | 5.3 | 0.3 | – | – | C[C@H](NC1(C)CCC1)c1cc2c(c(C(F)F)c1)CN(c1cccc([C@H](c3nncn3C)C3COC3)c1)C2=O (single isomer, unassigned) [Compound 413]
37 | 5.1 | 200 | 170 | 4.8 | 42 | – | – | Cn1cnnc1[C@@H](c1cccc(N2Cc3c(cc(CNC4(C)CCC4)cc3C(F)(F)F)C2=O)c1)C1(O)CCC1 (single isomer, unassigned) [Compound 429]
19 | 4.7 | 91 | 74 | 14 | 5.9 | – | – | Cn1cnnc1[C@@H](c1cccc(N2Cc3c(cc([C@@H](NC4(C)CCC4)C4CC4)cc3C(F)(F)F)C2=O)c1)C1COC1 (single isomer, unassigned) [Compound 430]
5.3 | 1.1 | 5.8 | 1.3 | 3.1 | 0.4 | – | – | Cn1cnnc1[C@@H](c1cccc(N2Cc3c(cc([C@H](NC4(C)CCC4)C4CC4)cc3C(F)(F)F)C2=O)c1)C1COC1 (single isomer, unassigned) [Compound 431]
5.5 | 1.3 | 7.1 | 1.5 | 3.6 | 0.4 | – | – | Cn1cnnc1[C@@H](c1cccc(N2Cc3c(cc([C@H](NC4(C)CCC4)C4CCC4)cc3C(F)(F)F)C2=O)c1)C1COC1 (single isomer, unassigned) [Compound 432]
17 | 4.7 | 78 | 86 | 10 | 8.5 | – | – | Cn1cnnc1[C@@H](c1cccc(N2Cc3c(cc([C@@H](NC4(C)CCC4)C4CCC4)cc3C(F)(F)F)C2=O)c1)C1COC1 (single isomer, unassigned) [Compound 433]
160 | 3.1 | 510 | 2500 | 13 | 190 | – | – | Cn1cnnc1[C@H](c1cccc(N2Cc3c(cc([C@H](NC4(C)CCC4)C4CCC4)cc3C(F)(F)F)C2=O)c1)C1COC1 (single isomer, unassigned) [Compound 434]
– | 4.2 | 2400 | 3500 | 5.3 | 600 | – | – | CC1(NCc2cc3c(c(C(F)(F)F)c2)CN(c2cccc([C@@H](C4COC4)n4ccnn4)c2)C3=O)CCC1 (single isomer, unassigned) [Compound 436]
260 | 11 | 2800 | 3300 | 18 | 180 | – | – | C[C@H](NC1(C)CCC1)c1cc2c(c(C(F)(F)F)c1)CN(c1cccc([C@@H](c3nncn3C)C3COC3)c1)C2=O (single isomer, unassigned) [Compound 442]
360 | 6.5 | 2400 | 4100 | 18 | 230 | – | – | Cn1cnnc1[C@H](c1cccc(N2Cc3c(cc([C@H](NC4(C)CCC4)C4CC4)cc3C(F)(F)F)C2=O)c1)C1COC1 (single isomer, unassigned) [Compound 456]
14 | 3.1 | 43 | 57 | 10 | 5.7 | – | – | Cn1cnnc1[C@@H](c1cccc(N2Cc3c(cc(CNC4(C)CCC4)cc3C(F)F)C2=O)c1)C1CC(F)C1 (single isomer, unassigned) [Compound 458]
5.9 | 1.1 | 6.3 | 3.2 | 6.1 | 0.5 | – | – | Cn1cnnc1[C@@H](c1cccc(N2Cc3c(cc(CNC4(C)CCC4)cc3C(F)F)C2=O)c1)C1CC(F)C1 (single isomer, unassigned) [Compound 459]
6.5 | 1.1 | 7.1 | 3.6 | 3.3 | 1.1 | – | – | CC(C)CNCc1cc2c(c(C(F)(F)F)c1)CN(c1cccc([C@H](c3nncn3C)C3COC3)c1)C2=O (single isomer, unassigned) [Compound 464]
6.2 | 1.4 | 8.6 | 9.1 | 3.6 | 2.5 | – | – | Cn1cnnc1[C@@H](c1cccc(N2Cc3c(cc(CNC4(C)CC4)cc3C(F)(F)F)C2=O)c1)C1COC1 (single isomer, unassigned) [Compound 466]
5.2 | 1.4 | 7.5 | 12 | 7 | 1.6 | – | – | Cn1cnnc1[C@@H](c1cccc(N2Cc3c(cc(CNCC(C)(C)C)cc3C(F)(F)F)C2=O)c1)C1COC1 (single isomer, unassigned) [Compound 468]
22 | 8.0 | 180 | 450 | 8.1 | 55 | – | – | CO[C@H]1C[C@](c2cccc(N3Cc4c(cc(CN[C@@H]5C[C@H]5C(C)(F)F)cc4C(F)(F)F)C3=O)c2)(c2nncn2C)C1 (single isomer, unassigned) [Compound 506]
– | – | 540 | 490 | 4.1 | 120 | 200 | (2.7x) | CO[C@H]1C[C@@H]([C@@H](c2cccc(N3Cc4c(cc(CN5CCN(C)C[C@@H]5C(C)C)cc4C(F)(F)F)C3=O)c2)c2nncn2C)C1 (stereo in doubt) [Compound 13, 6-(((S)-2-isopropyl-4-methylpiperazin-1-yl)methyl)-2-(3-((S)-((1 S,3S)-3-methoxycyclobutyl)(4-methyl-4H-1,2,4-triazol-3-yl)methyl)phenyl)-4-(trifluoromethyl)isoindolin-1-one]
– | – | 960 | 2400 | 1.0 | 2500 | 750 | 1.3x | Cn1cnnc1C(F)(c1cccc(N2Cc3c(cc(CNC4(C)CCC4)cc3C(F)(F)F)C2=O)c1)C1(F)COC1 (stereo in doubt) [Compound 403, (S)-2-(3-(fluoro(3-fluorooxetan-3-yl)(4-methyl-4H-1,2,4-triazol-3-yl)methyl)phenyl)-6-(((1-methylcyclobutyl)amino)methyl)-4-(trifluoromethyl)isoindolin-1-one]
4.8 | 1.0 | 4.9 | 2.2 | 2.6 | 0.85 | – | – | Cn1cnnc1C(F)(c1cccc(N2Cc3c(cc(CNC4(C)CCC4)cc3C(F)(F)F)C2=O)c1)C1(F)COC1 (stereo in doubt) [Compound 404, (R)-2-(3-(fluoro(3-fluorooxetan-3-yl)(4-methyl-4H-1,2,4-triazol-3-yl)methyl)phenyl)-6-(((1-methylcyclobutyl)amino)methyl)-4-(trifluoromethyl)isoindolin-1-one]
– | – | 25 | 5.7 | 4.4 | 1.3 | 27 | (0.93x) | CCNc1cc(C2(c3nncn3C)CC3(COC3)C2)cc(N2Cc3c(cc(CNC4(C)CCC4)cc3C(F)(F)F)C2=O)n1 [Compound 7, 2-(6-(ethylamino)-4-(6-(4-methyl-4H-1,2,4-triazol-3-yl)-2-oxaspiro[3.3]heptan-6-yl)pyridin-2-yl)-6-(((1-methylcyclobutyl)amino)methyl)-4-(trifluoro-methyl)isoindolin-1-one]
